Measured values from US8252740B2, “Thermally-targeted delivery of medicaments including doxorubicin” (The University of Mississippi Medical Center, priority 2006, dated 2012).

Experiments:
Type in all cases: cell-based, human
Conditions in all cases: 10 μM
MES-SA cells [1] = assay: Caspase activation, FLICA polycaspase assay with flow cytometry
Method: MES-SA cells were treated for 1 h at 37 or 42° C. with Tat-ELP-GFLG-DOX (SEQ ID NO: 3), the control construct lacking the Tat sequence, with free DOX. Cells were harvested after the 1 h exposure, and caspase activity was detected using a fluorescent caspase inhibitor (Immunochemistry Technologies, Bloomington, Minn.) and flow cytometry.
Caspase activation was measured using a carboxyfluorescein FLICA polycaspase assay (Immunochemistry Technologies, Bloomington, Minn.). Cells were treated as described above with the indicated protein, collected by trypsinization, and stained for 2 h at 37° C. with the carboxyfluorescein FLICA reagent as described by the manufacturer. Cells were rinsed twice and analyzed for caspase activation by flow cytometry using a Cytomics FC 500 flow cytometer (n=5,000 cells). Forward versus side scatter gating was used to eliminate cell debris from the analysis, and a histogram of fluorescein fluorescence (channel FL1) was bimodal with peaks for caspase positive and caspase negative cells. The percentage of caspase positive cells was determined from the histograms and expressed as an average of 3 experiments.
MES-SA cells were treated as described above, cells were harvested after the 1 h exposure, and caspase activity was detected using a fluorescent caspase inhibitor and flow cytometric analysis. […] Cell numbers under each peak were quantified and averaged to determine the percentage of the cell population in which caspases were activated under each treatment condition. […] In fact, the percent of caspase positive cells was enhanced almost 4 fold when cells were treated with Tat-ELP1-GFLG-Dox (SEQ ID NO: 3) at 42° C. versus 37° C. (p<0.05).

MES-SA cells [2] = assay: Confocal fluorescence microscopy of intracellular localization
Method: 1.7. Laser Scanning Confocal Fluorescence Microscopy. MES-SA cells were plated on 22 mm^2 cover slips at approximately 50% confluence and treated as described above with Tat-ELP-GFLG-Dox (SEQ ID NO: 3). Cells were rinsed with PBS at the indicated times, fixed with paraformaldehyde (PFA, 2% v/v) and visualized using a TCS SP2 laser scanning confocal microscope with a 100× oil immersion objective (Leica, Wetzlar, Germany). PMT voltages were lowered for imaging of cells treated at 42° C. during image acquisition to maximize image resolution and intensity.
3.4. Cellular Distribution. To confirm that Tat-ELP-GFLG-Dox (SEQ ID NO: 3) was internalized and not merely attached to the cell exterior, the cellular distribution of the ELP-delivered drug was examined by confocal fluorescence microscopy. MES-SA cells were treated for 1 h at 37° C. and 42° C. with 10 μM Tat-ELP1-GFLG-Dox (SEQ ID NO: 3). The cells were rinsed and analyzed immediately after treatment and 24 h later using the intrinsic Dox fluorescence. […] Untreated cells had no signal under the imaging settings used, ruling out any contribution to the images from autofluorescence (FIG. 7B, right panel).

MES-SA cells [3] = assay: DIC microscopy of apoptotic cell morphology
Method: 1.9. Apoptosis Assays. For differential interference contrast (DIC) microscopy, MES-SA cells were plated onto 22 mm^2 coverslips at 50% confluence. Cells were treated as described above with the indicated protein, rinsed with PBS, and mounted onto glass slides. The unfixed cells were imaged immediately using a Zeiss Axiovert 200 DIC microscope with a 40× oil immersion objective and a Coolsnap HQ camera.
2.6. Induction of Apoptosis. […] This effect was documented by treating MES-SA cells adhered to glass cover slips with each construct and imaging them by DIC microscopy. Cells were treated for 1 h as described above, then immediately mounted on slides and imaged without fixation. […] Untreated cells were spread onto the glass, and morphological features such as nuclei and endocytic vesicles were readily visible. This morphology was not altered by simply exposing the cells to hyperthermia. […] However, such effects were minor and limited to a fraction of the cells. […] All cells examined were rounded with no discernable nucleus and fragmented chromosomes.

Tat-ELP1-GFLG-Dox
Enhancement of percent caspase positive cells at 42° C. versus 37° C. (MES-SA cells [1]; 1 h): ~4 fold
Caspase activation / apoptosis induction (MES-SA cells [1]; 1 h at 37° C.): slightly above control levels
Caspase activation / apoptosis induction (MES-SA cells [1]; 1 h at 42° C.): significantly higher proportion of the population
Intracellular localization of Dox (MES-SA cells [2]; 24 h after 1 h exposure): remained in the cell cytoplasm
Intracellular localization of Dox (MES-SA cells [2]; after 1 h exposure): plasma and nuclear membranes as well as in a punctate pattern in the cytoplasm
Cell morphology (hallmarks of apoptosis) (MES-SA cells [3]; 1 h at 37° C. (below the Tt)): more extensive rounding and blebbing
Cell morphology (hallmarks of apoptosis) (MES-SA cells [3]; 1 h at 42° C. (above the Tt)): normal cell morphology was completely destroyed
